Reference: paper PMC2928817 (PLoS Pathogens, 2010)

How the values were obtained:
[1] = molecular target: NA of A/Osaka/180/2009 (O180r; NA H274Y) (Influenza A virus, UniProt C3W5S3, H275Y); format: biochemical, 2009 pandemic influenza A (H1N1) virus
[2] = molecular target: NA of A/Vietnam/HN32060/2009 (VN32060r; NA H274Y) (Influenza A virus, UniProt C3W5S3, H275Y); format: biochemical, 2009 pandemic influenza A (H1N1) virus

Structure (SMILES): CC(=O)N[C@H]1[C@H]([C@H](O)[C@H](O)CO)OC(C(=O)O)=C[C@@H]1N=C(N)N [Zanamivir]
- IC50 value of O180r compared with O164s [1]: comparable
- IC50 value of VN32060r compared with VN9727s [2]: comparable
